Reference: patent US8076324B2, “Di(hetero)arylcyclohexane derivatives, their preparation, their use and pharmaceutical compositions comprising them” (Sanofi-Aventis, priority 2007, dated 2011)
pIC50: −log10 of the molar value.

biological target: T1, myocardial ATP-sensitive potassium channel (SUR2A/Kir6.2) (UniProt Q61743+Q63563); assay: Rubidium efflux test on HEK293 cells transfected with SUR2A and Kir6.2 (myocardial action); assay type: cell-based, SUR2A from the rat, Kir6.2 from the mouse; settings: HEK293 cells transfected with SUR2A/Kir6.2; KATP channels opened by rilmakalim; 25 min incubation; read-out: IC50 values for the inhibition of the rubidium efflux
T1 construct: expressed in transfected cells
Experimental: 1) Action on the SUR2A/Kir6.2 potassium channel (myocardial action) The action of the compounds on the ion transport through the myocardial ATP-sensitive potassium channel (SUR2A/Kir6.2) was determined in the rubidium efflux test system described below on human embryonic kidney cells HEK293 which were transfected with the components SUR2A and Kir6.2 (cf. Weyermann et al., Naunyn-Schmiedeberg's Arch. Pharmacol. 369, 374-381 (2004)).
The HEK293 cells were cultured at 37° C. in a humidified air atmosphere with 7% carbon dioxide in minimal essential medium with Earle's salts and L-glutamine (MEM, Gibco), which was supplemented with 10% fetal calf serum and zeozin (0.36 mg/ml) and geneticin (0.75 mg/ml). The transfection of the cells and the preparation of a cell line with stable expression of Kir6.2 from the mouse (accession number AF037313) and SUR2A from the rat (accession number D83598/L40624) were carried out as described in Giblin et al., J. Biol. Chem. 274, 22652-22659 (1999).
60 000 transfected cells per well were inoculated into a poly-D-lysine-coated 96-well microtiter plate (Greiner #650 201). After incubation for 24 h at 37° C., the cells were washed three times with buffer 1 (150 mM NaCl, 2 mM CaCl2, 0.8 mM NaH2PO4, 1 mM MgCl2, 5 mM glucose, 25 mM HEPES, pH=7.4). Subsequently, the buffer solution was replaced by 100 μl of rubidium loading buffer (buffer 1 with 5.4 mM RbCl) and the cells were incubated for a further 3 h at 37° C. The rubidium loading buffer was then removed by washing the cells three times with 200 μl each of potassium chloride wash buffer (buffer 1 with 5.4 mM KCl). After addition of the test substances (70 μl; dissolved in potassium chloride wash buffer with addition of DMSO), the KATP channels of the cells were opened by addition of 70 μl of rilmakalim (2 μM) (cf. Krause et al., Pflügers Arch. 429, 625-635 (1995)) and the cells were incubated at 37° C. for 25 min. Subsequently, the cell supernatants were transferred to a new 96-well microtiter plate and the cells were lyzed by addition of 200 μl of lysis buffer (buffer 1 with 1% Triton X-100). The concentrations of Rb^+ in the cell supernatant and in the cell lyzate were measured by means of atomic absorption spectroscopy using an Al 1200 apparatus (Aurora Instruments Ltd.).
The Rb^+ efflux rate was calculated as [Rb^+SN]/[Rb^+total], wherein [Rb^+SN] is the amount of Rb^+ in the cell supernatant and [Rb^+total] is the sum of the amounts of Rb^+ in the cell supernatant and cell lyzate. IC50 values for the inhibition of the rubidium efflux were calculated with the aid of the Hill equation.

T1 sequence (Q63563 whole entry): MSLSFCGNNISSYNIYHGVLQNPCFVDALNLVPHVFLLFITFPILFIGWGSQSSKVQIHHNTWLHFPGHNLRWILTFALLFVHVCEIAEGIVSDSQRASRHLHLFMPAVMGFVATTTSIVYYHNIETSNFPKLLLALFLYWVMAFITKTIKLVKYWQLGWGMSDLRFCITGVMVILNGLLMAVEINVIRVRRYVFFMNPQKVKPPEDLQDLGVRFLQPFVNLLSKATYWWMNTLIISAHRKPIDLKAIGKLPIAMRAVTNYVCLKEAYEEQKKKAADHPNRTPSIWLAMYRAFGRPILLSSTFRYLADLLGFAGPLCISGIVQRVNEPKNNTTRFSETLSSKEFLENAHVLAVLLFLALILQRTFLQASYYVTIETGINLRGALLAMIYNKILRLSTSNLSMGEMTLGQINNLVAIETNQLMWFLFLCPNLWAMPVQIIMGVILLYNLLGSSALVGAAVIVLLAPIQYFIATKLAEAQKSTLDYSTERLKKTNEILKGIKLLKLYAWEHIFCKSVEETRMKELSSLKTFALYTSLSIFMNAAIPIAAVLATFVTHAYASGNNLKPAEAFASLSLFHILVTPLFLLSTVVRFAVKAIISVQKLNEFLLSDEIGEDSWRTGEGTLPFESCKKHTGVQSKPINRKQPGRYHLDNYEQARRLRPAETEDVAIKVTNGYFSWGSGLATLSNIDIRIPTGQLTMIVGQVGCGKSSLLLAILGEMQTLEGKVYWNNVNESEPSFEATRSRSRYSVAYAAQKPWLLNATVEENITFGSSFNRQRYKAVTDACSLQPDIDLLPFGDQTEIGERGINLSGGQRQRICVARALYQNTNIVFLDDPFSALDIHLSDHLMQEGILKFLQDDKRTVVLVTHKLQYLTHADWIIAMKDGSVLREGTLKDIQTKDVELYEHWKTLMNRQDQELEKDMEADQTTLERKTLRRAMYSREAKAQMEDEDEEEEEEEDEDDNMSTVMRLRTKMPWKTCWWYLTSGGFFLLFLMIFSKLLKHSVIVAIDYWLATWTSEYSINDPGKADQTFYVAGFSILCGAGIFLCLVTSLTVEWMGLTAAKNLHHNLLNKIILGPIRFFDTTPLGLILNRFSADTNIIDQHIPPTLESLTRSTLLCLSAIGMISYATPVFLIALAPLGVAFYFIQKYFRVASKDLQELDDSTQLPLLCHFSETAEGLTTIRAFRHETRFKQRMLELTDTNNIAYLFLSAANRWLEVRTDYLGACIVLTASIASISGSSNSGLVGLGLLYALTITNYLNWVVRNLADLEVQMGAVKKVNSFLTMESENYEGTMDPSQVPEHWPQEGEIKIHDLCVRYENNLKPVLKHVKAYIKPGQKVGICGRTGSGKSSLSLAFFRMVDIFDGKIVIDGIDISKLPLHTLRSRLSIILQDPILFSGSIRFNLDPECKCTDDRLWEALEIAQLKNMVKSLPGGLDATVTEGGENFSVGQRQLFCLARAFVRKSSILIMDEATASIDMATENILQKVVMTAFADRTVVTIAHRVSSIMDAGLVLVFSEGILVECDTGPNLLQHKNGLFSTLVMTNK
T1 sequence (Q61743 whole entry): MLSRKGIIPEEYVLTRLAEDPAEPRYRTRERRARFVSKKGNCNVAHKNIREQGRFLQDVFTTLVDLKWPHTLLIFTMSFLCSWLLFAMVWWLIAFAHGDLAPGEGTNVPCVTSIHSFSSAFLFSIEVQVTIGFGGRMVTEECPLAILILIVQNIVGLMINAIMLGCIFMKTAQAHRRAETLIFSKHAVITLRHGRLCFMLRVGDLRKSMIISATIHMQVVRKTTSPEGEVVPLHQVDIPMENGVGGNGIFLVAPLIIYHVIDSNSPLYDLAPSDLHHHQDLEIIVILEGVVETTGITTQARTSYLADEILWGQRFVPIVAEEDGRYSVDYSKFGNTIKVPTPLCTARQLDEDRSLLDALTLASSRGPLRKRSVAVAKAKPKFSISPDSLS

pIC50	Structure (SMILES)
> 6.00	O=C(O)[C@]1(c2ccccc2)CC[C@](OCC2CC2)(c2cc(-c3ccccc3)ccn2)CC1 [Example 486, Trans-4-Cyclopropylmethoxy-1-phenyl-4-(4-phenylpyridin-2-yl)cyclohexanecarboxylic Acid]
> 6.00	O=C(O)C1(c2ccccc2)CCC(OCC2CC2)(c2ccc(-c3ccc(F)c(Br)c3)cc2)CC1 (stereo not shown) [Example 275]
> 6.00	Cc1nc([C@]2(OCC3(C)COC3)CC[C@](C(=O)O)(c3ccccc3)CC2)n(CC2CC2)c1Cl [Example 385]
> 6.00	O=C(O)[C@]1(c2ccccc2)CC[C@@](OCC2CC2)(c2nc3cccnc3n2CC2CC2)CC1 [Example 448]
> 6.00	O=C(O)[C@]1(c2ccccc2)CC[C@@](OCC2CC2)(c2nc(C(F)(F)F)cn2CC2CC2)CC1 [Example 380]
> 6.00	CSc1ccc(F)cc1C1(OCC2CC2)CCC(C(=O)O)(c2ccc(F)cc2)CC1 (stereo not shown) [Example 247]
> 6.00	O=C(O)[C@]1(c2ccccc2)CC[C@@](OCC2CC2)(c2ncc(C(F)(F)F)n2CC2CC2)CC1 [Example 378]
> 6.00	O=C(O)[C@]1(c2ccccc2)CC[C@@](OCC2CC2)(c2nccn2CC2CC2)CC1 [Example 492, Cis-Cyclopropylmethoxy-4-(1-cyclopropylmethyl-1H-imidazol-2-yl)-1-phenylcyclohexanecarboxylic Acid]
> 6.00	O=C(O)[C@]1(c2ccc(F)cc2)CC[C@](Oc2ccccc2)(c2nc3ccccc3n2CC2CC2)CC1 [Example 406]
> 6.00	Cc1nc([C@]2(OCC3CC3)CC[C@](C(=O)O)(c3ccccc3)CC2)n(C)c1Cl [Example 391]
> 6.00	Cc1nc([C@]2(OCC3CC3)CC[C@](C(=O)O)(c3ccc(OC(F)(F)F)cc3)CC2)n(CC2CC2)c1Cl [Example 410]
> 6.00	O=C(O)[C@]1(c2ccc(F)cc2)CC[C@@](OCC2CC2)(c2nc3ccccc3n2CC2CC2)CC1 [Example 366]
> 6.00	O=C(O)C1(c2ccccc2)CCC(O)(c2ccc(F)cc2)CC1 (stereo not shown) [Example 93]
> 6.00	COC1(c2ccc(Cl)cn2)CCC(C(=O)O)(c2ccccc2)CC1 (stereo not shown) [Example 137]
> 6.00	Cc1nc([C@]2(OCC3CC3)CC[C@](C(=O)O)(c3ccccc3)CC2)n(CC2CC2)c1Cl [Example 382]
> 6.00	O=C(O)C1(c2ccccc2)CCC(O)(c2ccc(Br)cc2)CC1 (stereo not shown) [Example 105]
> 6.00	COc1ccc(C2(OC)CCC(C(=O)O)(c3ccccc3)CC2)cc1F (stereo not shown) [Example 131]
> 6.00	CS(=O)(=O)c1ccc(-c2nc([C@]3(Oc4ccccc4)CC[C@@](C(=O)O)(c4ccccc4)CC3)n(CC3CC3)n2)cc1 [Example 467]
> 6.00	COc1ccc(-c2cc([C@]3(OCC4CC4)CC[C@@](C(=O)O)(c4ccccc4)CC3)n(CC3CC3)n2)cc1 [Example 319, Trans-4-Cyclopropylmethoxy-4-[2-cyclopropylmethyl-5-(4-methoxyphenyl)-2H-pyrazol-3-yl]-1-phenylcyclohexanecarboxylic Acid]
> 6.00	O=C(O)[C@]1(c2ccccc2)CC[C@@](OCC2(c3ccccc3)COC2)(c2ccc(F)cc2)CC1 [Example 499, 4-(4-Fluorophenyl)-1-phenyl-4-(3-phenyloxetan-3-ylmethoxy)cyclohexanecarboxylic Acid]
> 6.00	O=C(O)[C@]1(c2ccccc2)CC[C@](OCC2CC2)(c2nc3cc(F)ccc3n2CC2CC2)CC1 [Example 453]
> 6.00	Cc1nc([C@]2(OCC3CC3)CC[C@](C(=O)O)(c3ccc(F)cc3)CC2)n(CC2CC2)c1C [Example 365]
> 6.00	COC1(c2ccc(F)cc2)CCC(C(=O)O)(c2ccccc2OC(F)(F)F)CC1 (stereo not shown) [Example 238]

pIC50	Structure (SMILES)
> 6.00	Cc1nc([C@]2(OCCC(C)C)CC[C@](C(=O)O)(c3ccccc3)CC2)n(CC2CC2)c1Br [Example 375]
> 6.00	CCCn1c(Cl)c(C)nc1[C@]1(OCC2CC2)CC[C@](C(=O)O)(c2ccccc2)CC1 [Example 388]
> 6.00	Cc1nc([C@]2(OCCC(C)(C)C)CC[C@](C(=O)O)(c3ccccc3)CC2)n(C)c1Cl [Example 392]
> 6.00	CSc1ccc(C2(O)CCC(C(=O)O)(c3ccccc3)CC2)cc1 (stereo not shown) [Example 161, 4-Hydroxy-4-(4-methylsulfanylphenyl)-1-phenylcyclohexanecarboxylic Acid]
> 6.00	O=C(O)C1(c2ccccc2)CCC(OCCC2CC2)(c2ccc(F)cc2)CC1 (stereo not shown) [Example 306, 4-(2-Cyclopropylethoxy)-4-(4-fluorophenyl)-1-phenylcyclohexanecarboxylic Acid]
> 6.00	CCCOC1(c2ccc(F)cc2SC)CCC(C(=O)O)(c2ccc(F)cc2)CC1 (stereo not shown) [Example 242]
> 6.00	Cc1nc([C@]2(OCC3CC3)CC[C@](C(=O)O)(c3ccc(S(C)(=O)=O)cc3)CC2)n(CC2CC2)c1Cl [Example 408]
> 6.00	CCCOC1(c2cccc(S(C)(=O)=O)c2)CCC(C(=O)O)(c2ccccc2)CC1 (stereo not shown) [Example 168]
> 6.00	CS(=O)(=O)c1cc(F)cc([C@]2(OCC3CC3)CC[C@](C(=O)O)(c3ccc(F)cc3)CC2)c1 [Example 301, Cis-4-Cyclopropylmethoxy-4-(3-fluoro-5-methanesulfonylphenyl)-1-(4-fluorophenyl)cyclohexanecarboxylic Acid]
> 6.00	O=C(O)C1(c2ccccc2)CCC(O)(c2c(F)cc(F)cc2F)CC1 (stereo not shown) [Example 98]
> 6.00	Cc1nc([C@]2(OCC3CC3)CC[C@](C(=O)O)(c3cccc(OC(F)(F)F)c3)CC2)n(CC2CC2)c1Cl [Example 409]
> 6.00	CC(C)S(=O)(=O)c1cc(F)cc([C@]2(OCC3CC3)CC[C@](C(=O)O)(c3ccc(F)cc3)CC2)c1 [Example 304-1, Cis-4-Cyclopropylmethoxy-1-(4-fluorophenyl)-4-[3-fluoro-5-(propane-2-sulfonyl)phenyl]cyclohexanecarboxylic Acid]
> 6.00	Cc1c(Br)nc([C@]2(OCCC(C)C)CC[C@](C(=O)O)(c3ccccc3)CC2)n1CC1CC1 [Example 374]
> 6.00	COC1(c2ccc(SC)cc2)CCC(C(=O)O)(c2ccccc2)CC1 (stereo not shown) [Example 163, 4-Methoxy-4-(4-methylsulfanylphenyl)-1-phenylcyclohexanecarboxylic Acid]
> 6.00	C=C(CO[C@]1(c2nccn2CC2CC2)CC[C@@](C(=O)O)(c2ccccc2)CC1)c1ccccc1 [Example 495, Cis-4-(1-Cyclopropylmethyl-1H-imidazol-2-yl)-1-phenyl-4-(2-phenylallyloxy)cyclohexanecarboxylic Acid]
> 6.00	CS(=O)(=O)c1ccc(F)cc1C1(OCC2CC2)CCC(C(=O)O)(c2ccc(F)cc2)CC1 (stereo not shown) [Example 258]
> 6.00	CCCn1c(Cl)c(C)nc1[C@]1(OCCC(C)(C)C)CC[C@](C(=O)O)(c2ccccc2)CC1 [Example 389]
> 6.00	CCOC1(c2ccc(F)cc2)CCC(C(=O)O)(c2ccccc2)CC1 (stereo not shown) [Example 141]
> 6.00	O=C(O)C1(c2ccccc2)CCC(OCC2CC2)(c2cnc3ccccc3c2)CC1 (stereo not shown) [Example 152]
> 6.00	O=C(O)[C@]1(c2ccccc2)CC[C@@](OCC2CC2)(c2nc(-c3ccccc3)cs2)CC1 [Example 333-1, Cis-4-Cyclopropylmethoxy-1-phenyl-4-(4-phenylthiazol-2-yl)cyclohexanecarboxylic Acid]
> 6.00	COC1(c2cnc3ccccc3c2)CCC(C(=O)O)(c2ccccc2)CC1 (stereo not shown) [Example 136]
> 6.00	Cc1c(F)cc([C@]2(OCC3CC3)CC[C@](C(=O)O)(c3ccc(F)cc3)CC2)cc1S(=O)(=O)C(C)C [Example 304-4, Cis-4-Cyclopropylmethoxy-4-[3-fluoro-4-methyl-5-(propane-2-sulfonyl)phenyl]-1-(4-fluorophenyl)cyclohexanecarboxylic Acid]
> 6.00	O=C(O)[C@]1(c2ccccc2)CC[C@@](OCC2CC2)(c2cc(-c3ccccc3)ccn2)CC1 [Example 485, Cis-4-Cyclopropylmethoxy-1-phenyl-4-(4-phenylpyridin-2-yl)cyclohexanecarboxylic Acid]
